Read-outs that look alike come from different tables or passages of the source.
Assays:
[1] = rats, cited from earlier work
[2] = patients, curative pentasaccharide treatment; cited from earlier work
[3] = Fondaparinux overdose and pharmacokinetics in mice; assay type: in vivo; details: mouse
Experimental: 1—Determination of the Doses of Fondaparinux Inducing an Overdose in Mice Published data concerning fondaparinux pharmacokinetics in rats (Herbert J 4197), or experimental determination of fondaparinux pharmacokinetics in mice are used to develop the model.
To induce an overdose, a 3 fold doses (300 nmol/kg, or 0.52 mg/kg) is tested. At this dose, the fondaparinux plasma concentration is about 3.5 to 4 nmol/ml (or 6 to 7 mg/L). An anti-Xa activity is determined to ensure that an overdose is obtained.
Anti FXa activity measurements is performed as previously described using a Stachrom Heparin® kit on a STA (Stago, France) or a Rotachrom Heparin® kit with procedure adapted for measurement in microplate reader (Dynatech MR 5000). A calibration curve with pentasaccharide is performed, allowing the expression of the results in nmol/ml (or in mg/L) of plasma.
In mouse, an overdose of fondaparinux is observed at 300 nmol/kg (or 0.52 mg/kg) but maximal concentration in plasma is observed less than 15 min after sub-cutaneous injection.

[4] = Heparin affinity column elution with NaCl gradient; assay type: binding
Experimental: Conditioned media are thawed, pooled, salt concentration adjusted to 0.4 M NaCl and then applied on an heparin immobilized column (Hitrap Heparin 5 ml or Heparin-sepharose CL6B 50 ml, GE Biological) equilibrated with 10 mM Tris, or with 20 mM phosphate buffer, 0.4 M NaCl and 0.1 mM EDTA, pH 7.4. The bound proteins are eluted in the same buffer with a gradient from 0.4 M to 2 M NaCl. The fractions eluted from 0.8 M NaCl and more contained only wild type antithrombin or mutated antithrombins with high heparin affinity. […] The collected fractions are pooled and the salt concentration is decreased either by over night dialysis against 10 mM Tris, or 20 mM phosphate, and 0.1 M NaCl, pH 7.4 at 4° C. or applied on an HiPrep 26/10 desalting column equilibrated with 10 mM Tris, or 20 mM phosphate, and 0.1 M NaCl, pH 7.4. The antithrombin is then concentrated by ion exchange chromatography using a “Resource Q” 1 ml column (GE, Biological) equilibrated with 10 mM Tris, or 20 mM phosphate, and 0.1 M NaCl, pH 7.4 and eluted in the same buffer with a NaCl gradient from […] to 0.5 M or 20 mM to 0.5 M. The antithrombin concentration in each elution fraction is estimated by absorbance at 280 nm with an absorption coefficient ε=0.65 g^−1·l·cm^−1 and the integrity of purified wild type antithrombin or mutated antithrombins is tested by western blotting using the same couple of antibodies as described before, and electrophoresis on 10% acrylamide/bisacrylamide gel in native and denaturing conditions followed by coomassie brilliant blue R-250 staining (FIG. 4). Then, the antithrombin preparation is aliquoted and stored at −80° C. before use for functional assay. The same procedure is used to purify plasma antithrombin (used as internal reference) from human plasma.

Compound	Tmax ([1]; intra-venous injection of 100 nmol/kg (or 0.17 mg/kg)) [min]	Tmax ([1]; subcutaneous injection of 100 nmol/kg (or 0.17 mg/kg)) [min]	minimal equilibrium concentration in plasma [2] [mg/L]	optimal equilibrium concentration in plasma [2] [mg/L]	dose at which an overdose is observed [3] [mg/kg]	elution from heparin affinity column compared with wild type antithrombin [4]
CO[C@H]1O[C@H](COS(=O)(=O)O)[C@@H](O[C@@H]2O[C@@H](C(=O)O)[C@@H](O[C@H]3O[C@H](COS(=O)(=O)O)[C@@H](O[C@@H]4O[C@H](C(=O)O)[C@@H](O[C@H]5O[C@H](COS(=O)(=O)O)[C@@H](O)[C@H](O)[C@H]5NS(=O)(=O)O)[C@H](O)[C@H]4O)[C@H](OS(=O)(=O)O)[C@H]3NS(=O)(=O)O)[C@H](O)[C@H]2OS(=O)(=O)O)[C@H](O)[C@H]1NS(=O)(=O)O [fondaparinux]	5	30	0.46 to 0.62	1.20 to 1.26	0.52	–
AT-N135Q: human antithrombin with substitution of the amino acid at position 135 by Glutamine	–	–	–	–	–	higher ionic strength than wild type antithrombin
